{"source": "PubChem BioAssay AID588652", "about": "(The Scripps Research Institute Molecular Screening Center, 2011)", "target": "Krueppel-like factor 5 (Homo sapiens) (UniProt Q13887)", "sequence (Q13887 whole entry, looked up)": "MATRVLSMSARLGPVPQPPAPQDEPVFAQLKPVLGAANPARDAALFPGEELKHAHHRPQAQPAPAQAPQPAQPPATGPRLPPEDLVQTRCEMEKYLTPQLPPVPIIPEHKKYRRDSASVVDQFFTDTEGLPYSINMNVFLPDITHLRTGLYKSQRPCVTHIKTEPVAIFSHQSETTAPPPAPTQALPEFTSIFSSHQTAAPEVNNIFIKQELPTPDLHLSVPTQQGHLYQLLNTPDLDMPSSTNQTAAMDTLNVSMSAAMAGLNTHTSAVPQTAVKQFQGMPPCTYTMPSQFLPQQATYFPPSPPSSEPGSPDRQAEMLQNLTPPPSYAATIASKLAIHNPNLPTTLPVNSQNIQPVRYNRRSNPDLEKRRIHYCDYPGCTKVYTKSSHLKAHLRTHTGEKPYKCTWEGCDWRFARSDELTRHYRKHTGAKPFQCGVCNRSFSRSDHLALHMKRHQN", "assay": "KLF5 protein abundance by immunoblot – western blot, chemiluminescence, HCT116 colorectal cells, counter-screen for KLF5 inhibitor project, late-stage follow-up (AID 588652)", "settings": "HCT116 KLF5 protein level, 24 h, at 10 µM, hits give high values"}
{"smiles": "CN(C(=O)COC(=O)/C=C/c1cccc([N+](=O)[O-])c1)C1CCS(=O)(=O)C1", "note": "(stereo unspecified)", "values": [{"measurement": "inhibition", "result": 62.6, "unit": "%"}]}
